Key:
[1] = test system: human embryonic stem cell derived neural stem cells (NSCs); assay: Neural stem cell proliferation assay (neurogenesis assay, ATP/CellTiterGlo); type: cell-based; settings: 96 h, compound concentration at which 150% activity of control (100%) is reached, NSC proliferation by ATP level after 4 days incubation, dose response 8 μM to 8 nM
Protocol: Neural Stem Cell Proliferation Assay
Neurogenic properties of small molecules are determined based on the proliferation of human embryonic stem cell derived neural stem cells (NSCs) which were derived via a dual smad inhibition as previously described (Chambers, S. M., et al., Highly efficient neural conversion of human ES and iPS cells by dual inhibition of SMAD signaling, Nature biotechnology, 2009. 27(3): p. 275-80.)
Compounds respond is measured by the increase in cells based on ATP levels (Promega:CellTiterGlo®) after an incubation period of 4 days.
NSCs are thawed and expanded over 3 passages. On the 14th day, NSCs are seeded in Polyornithin/Laminin coated 384 well plates at a cell density of 21,000 cells/cm^2 in a media volume of 38 μL.
4 hours after cell seeding, compound solutions are added at a volume of 2 μl. Stock solutions of the compounds (water, 5% DMSO) are diluted to obtain a dose response (11 points, dilution factor is 2), ranging from 8 μM to 8 nM. Controls are run to consistently determine the neurogenic properties of the cells:
Negative (neutral) control is cell culture Media (final DMSO concentration: 0.25%).
Positive controls are: • 1. cell culture Media+100 ng/ml FGF2 (final DMSO concentration: 0.1%) • 2. cell culture Media+20 ng/ml EGF (final DMSO concentration: 0.1%) • 3. cell culture Media+100 ng/ml Wnt3a (final DMSO concentration: 0.1%)
After 4 days incubation at 37° C., 5% CO2, the amount of ATP per well is quantified. The ATP concentration is proportional to the cell number. ATP is quantified by using the Promega CellTiterGlo® kit. The CellTiterGlo® reagents contain a cell lysis buffer, a thermo stable luciferase (UltraGlo™ recombinant luciferase), magnesium and luciferin. Luciferin reacts with ATP producing oxyluciferin, AMP and light. The luminescence signal is proportional to the ATP content.
The value of negative (neutral) control is determined for each assay plate by taking the average of 16 negative control wells. The neurogenic compound response is calculated for each compound as (compound/Negative Control)*100.
The values of EC150 from the dose response curve are determined for each test compound. The EC150 is the compound concentration at which 150% activity of control (100%) is reached.

| melting point [°C] | SMILES | EC150 [1] [µM] |
| --- | --- | --- |
| 153 | Fc1ccc(-n2nccc2-c2ccc3ncn(-c4ccc(Cl)cc4F)c3c2)cc1 [Example 22, 1-(4-Chloro-2-fluoro-phenyl)-6-[2-(4-fluoro-phenyl)-2H-pyrazol-3-yl]-1H-benzoimidazole] | 0.084 |
| 146 | Cc1ccc(-n2cnc3ccc(-c4ccnn4-c4ccccc4)cc32)cc1 [Example 5, 6-(2-Phenyl-2H-pyrazol-3-yl)-1-p-tolyl-1H-benzoimidazole] | 0.0165 |
| 203 | Clc1ccc(-n2nccc2-c2ccc3ncn(-c4ccncc4)c3c2)cc1 [Example 21, 6-[2-(4-Chloro-phenyl)-2H-pyrazol-3-yl]-1-pyridin-4-yl-1H-benzoimidazole] | 0.036 |
| 173 | Fc1ccc(-n2nccc2-c2ccc3ncn(-c4ccc(F)cc4)c3c2)cc1 [Example 8, 1-(4-Fluoro-phenyl)-6-[2-(4-fluoro-phenyl)-2H-pyrazol-3-yl]-1H-benzoimidazole] | 0.044 |
| – | Cc1ccc(-n2nccc2-c2ccc3ncn(-c4ccccc4)c3c2)cc1 [Example 4, 1-Phenyl-6-(2-p-tolyl-2H-pyrazol-3-yl)-1H-benzoimidazole] | 0.015 |
| 152 | Fc1ccc(-n2nccc2-c2ccc3ncn(-c4ccc(F)cc4F)c3c2)cc1 [Example 17, 1-(2,4-Difluoro-phenyl)-6-[2-(4-fluoro-phenyl)-2H-pyrazol-3-yl]-1H-benzoimidazole] | 0.047 |
| 167 | Fc1ccc(-n2cnc3ccc(-c4ccnn4-c4ccc(C(F)(F)F)cc4)cc32)cc1 [Example 10, 1-(4-Fluoro-phenyl)-6-[2-(4-trifluoromethyl-phenyl)-2H-pyrazol-3-yl]-1H-benzoimidazole] | 1.1 |
| 204 | Fc1ccc(-n2nccc2-c2ccc3ncn(-c4ccc(C(F)(F)F)cc4)c3c2)cc1 [Example 18, 6-[2-(4-Fluoro-phenyl)-2H-pyrazol-3-yl]-1-(4-trifluoromethyl-phenyl)-1H-benzoimidazole] | 0.41 |
| 173 | Fc1ccc(-n2nccc2-c2ccc3ncn(-c4ccc(Cl)cc4)c3c2)cc1 [Example 19, 1-(4-Chloro-phenyl)-6-[2-(4-fluoro-phenyl)-2H-pyrazol-3-yl]-1H-benzoimidazole] | 0.09 |
| 201 | Fc1ccc(-n2nccc2-c2ccc3ncn(-c4ccccc4)c3c2)cc1 [Example 3, 6-[2-(4-Fluoro-phenyl)-2H-pyrazol-3-yl]-1-phenyl-1H-benzoimidazole] | 0.024 |
| 163 | COc1ccc(-n2cnc3ccc(-c4ccnn4-c4ccc(Cl)cc4)cc32)cc1 [Example 25, 6-[2-(4-Chloro-phenyl)-2H-pyrazol-3-yl]-1-(4-methoxy-phenyl)-1H-benzoimidazole] | 0.056 |
| 196 | FC(F)(F)c1ccc(-n2cnc3ccc(-c4ccnn4-c4ccc(Cl)cc4)cc32)cc1 [Example 14, 6-[2-(4-Chloro-phenyl)-2H-pyrazol-3-yl]-1-(4-trifluoromethyl-phenyl)-1H-benzoimidazole] | 0.62 |
| 149 | Cc1ccc(-n2cnc3ccc(-c4ccnn4-c4ccc(F)cc4)cc32)cc1 [Example 6, 6-[2-(4-Fluoro-phenyl)-2H-pyrazol-3-yl]-1-p-tolyl-1H-benzoimidazole] | 0.0195 |
| 158 | Fc1cc(Cl)ccc1-n1cnc2ccc(-c3ccnn3-c3ccc(Cl)cc3)cc21 [Example 23, 1-(4-Chloro-2-fluoro-phenyl)-6-[2-(4-chloro-phenyl)-2H-pyrazol-3-yl]-1H-benzoimidazole] | 0.17 |
| 143 | COc1ccc(-n2cnc3ccc(-c4ccnn4-c4ccc(F)cc4)cc32)cc1 [Example 24, 6-[2-(4-Fluoro-phenyl)-2H-pyrazol-3-yl]-1-(4-methoxy-phenyl)-1H-benzoimidazole] | 0.021 |
| 165 | Cc1ccc(-n2nccc2-c2ccc3ncn(-c4ccc(C)cc4)c3c2)cc1 [Example 1, 1-p-Tolyl-6-(2-p-tolyl-2H-pyrazol-3-yl)-1H-benzoimidazole] | 0.008 |
| 182 | Clc1ccc(-n2nccc2-c2ccc3ncn(-c4ccc(Cl)cc4)c3c2)cc1 [Example 13, 1-(4-Chloro-phenyl)-6-[2-(4-chloro-phenyl)-2H-pyrazol-3-yl]-1H-benzoimidazole] | 0.082 |
| 247 | CS(=O)(=O)c1ccc(-n2cnc3ccc(-c4ccnn4-c4ccc(F)cc4)cc32)cc1 [Example 26, 6-[2-(4-Fluoro-phenyl)-2H-pyrazol-3-yl]-1-(4-methanesulfonyl-phenyl)-1H-benzoimidazole] | 0.28 |
| 194 | Fc1ccc(-n2cnc3ccc(-c4ccnn4-c4ccccc4)cc32)cc1 [Example 7, 1-(4-Fluoro-phenyl)-6-(2-phenyl-2H-pyrazol-3-yl)-1H-benzoimidazole] | 0.031 |
| 247 | Fc1ccc(-n2cncc2-c2ccc3ncn(-c4ccc(F)cc4)c3c2)cc1 [Example 30, 1-(4-Fluoro-phenyl)-6-[3-(4-fluoro-phenyl)-3H-imidazol-4-yl]-1H-benzoimidazole] | 0.11 |
| 199 | Fc1ccc(-n2nccc2-c2ccc3ncn(-c4ccncc4)c3c2)cc1 [Example 20, 6-[2-(4-Fluoro-phenyl)-2H-pyrazol-3-yl]-1-pyridin-4-yl-1H-benzoimidazole] | 0.044 |
| – | Cc1ccc(-n2nccc2-c2ccc3ncn(-c4ccc(F)cc4)c3c2)cc1 [Example 9, 1-(4-Fluoro-phenyl)-6-(2-p-tolyl-2H-pyrazol-3-yl)-1H-benzoimidazole] | 0.009 |
| 129 | Fc1ccc(-n2cnc3ccc(-c4ccnn4-c4ccc(C(F)(F)F)cc4)cc32)c(F)c1 [Example 15, 1-(2,4-Difluoro-phenyl)-6-[2-(4-trifluoromethyl-phenyl)-2H-pyrazol-3-yl]-1H-benzoimidazole] | 1.33 |
| 254 | Fc1ccc(-n2cnc3ccc(-c4cncn4-c4ccc(Cl)cc4)cc32)cc1 [Example 29, 6-[3-(4-Chloro-phenyl)-3H-imidazol-4-yl]-1-(4-fluoro-phenyl)-1H-benzoimidazole] | 0.074 |
| 216 | Fc1ccc(-n2cnc3ccc(-c4cncn4-c4ccccc4)cc32)cc1 [Example 28, 1-(4-Fluoro-phenyl)-6-(3-phenyl-3H-imidazol-4-yl)-1H-benzoimidazole] | 0.07 |
| 133 | Fc1ccc(-n2cnc3ccc(-c4ccnn4-c4ccc(Cl)cc4)cc32)c(F)c1 [Example 16, 6-[2-(4-Chloro-phenyl)-2H-pyrazol-3-yl]-1-(2,4-difluoro-phenyl)-1H-benzoimidazole] | 0.19 |
| 280 | CS(=O)(=O)c1ccc(-n2cnc3ccc(-c4ccnn4-c4ccc(Cl)cc4)cc32)cc1 [Example 27, 6-[2-(4-Chloro-phenyl)-2H-pyrazol-3-yl]-1-(4-methanesulfonyl-phenyl)-1H-benzoimidazole] | 0.16 |
| 194 | c1ccc(-n2nccc2-c2ccc3ncn(-c4ccccc4)c3c2)cc1 [Example 2, 1-Phenyl-6-(2-phenyl-2H-pyrazol-3-yl)-1H-benzoimidazole] | 0.014 |
| 180 | Fc1ccc(-n2cnc3ccc(-c4ccnn4-c4ccc(Cl)cc4)cc32)cc1 [Example 11, 6-[2-(4-Chloro-phenyl)-2H-pyrazol-3-yl]-1-(4-fluoro-phenyl)-1H-benzoimidazole] | 0.11 |
| 198 | FC(F)(F)c1ccc(-n2nccc2-c2ccc3ncn(-c4ccc(Cl)cc4)c3c2)cc1 [Example 12, 1-(4-Chloro-phenyl)-6-[2-(4-trifluoromethyl-phenyl)-2H-pyrazol-3-yl]-1H-benzoimidazole] | 0.71 |
